In patent US12275731B2, “Azaindole inhibitors of wild-type and mutant forms of LRRK2” (DANA-FARBER CANCER INSTITUTE, INC., priority 2018, dated 2025):

Legend:
Assay in all cases: KinomeScan profiling
Format in all cases: binding
YANK2 = YANK2 (Homo sapiens, UniProt Q9NY57); conditions: YANK2, 1 μM; read-out: % control
Summary of the method: (§1)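 At 1 μM in DMSO, compounds are run through a broad 468-member kinase panel. The luminescent read-out is normalised so that vehicle gives 100% and a positive control gives 0%; any kinase falling below 35% is treated as a target.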

PRKD2 = molecular target: T1, PRKD2 (Homo sapiens, UniProt Q9BZL6); conditions: PRKD2, 1 μM; read-out: % control
T1 sequence (Q9BZL6 1-878): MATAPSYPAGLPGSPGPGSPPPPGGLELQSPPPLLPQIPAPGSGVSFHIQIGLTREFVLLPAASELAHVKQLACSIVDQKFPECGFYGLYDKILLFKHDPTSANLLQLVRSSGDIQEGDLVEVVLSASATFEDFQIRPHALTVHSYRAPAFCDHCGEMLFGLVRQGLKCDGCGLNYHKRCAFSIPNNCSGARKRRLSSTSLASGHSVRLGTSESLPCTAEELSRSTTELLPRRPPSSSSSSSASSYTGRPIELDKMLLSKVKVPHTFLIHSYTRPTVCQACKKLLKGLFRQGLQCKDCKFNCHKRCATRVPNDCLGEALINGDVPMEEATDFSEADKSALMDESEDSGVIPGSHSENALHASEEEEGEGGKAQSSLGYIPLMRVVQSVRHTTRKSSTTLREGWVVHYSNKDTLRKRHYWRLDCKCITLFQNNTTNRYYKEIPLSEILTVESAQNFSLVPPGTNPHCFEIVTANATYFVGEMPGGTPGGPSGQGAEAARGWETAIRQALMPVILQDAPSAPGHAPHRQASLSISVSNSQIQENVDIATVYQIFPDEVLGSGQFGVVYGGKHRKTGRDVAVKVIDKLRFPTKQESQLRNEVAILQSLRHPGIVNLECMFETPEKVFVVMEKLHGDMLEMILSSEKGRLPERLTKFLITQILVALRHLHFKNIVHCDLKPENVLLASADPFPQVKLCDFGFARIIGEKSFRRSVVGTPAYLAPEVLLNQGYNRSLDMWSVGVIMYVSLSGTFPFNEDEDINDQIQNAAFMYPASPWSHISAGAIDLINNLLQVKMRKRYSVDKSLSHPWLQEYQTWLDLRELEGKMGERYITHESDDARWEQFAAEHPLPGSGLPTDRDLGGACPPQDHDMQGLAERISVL
Summary of the method: as §1

PRKCI = molecular target: T2, PRKCI (Homo sapiens, UniProt P41743); conditions: read-out: % control
T2 sequence (P41743 1-596): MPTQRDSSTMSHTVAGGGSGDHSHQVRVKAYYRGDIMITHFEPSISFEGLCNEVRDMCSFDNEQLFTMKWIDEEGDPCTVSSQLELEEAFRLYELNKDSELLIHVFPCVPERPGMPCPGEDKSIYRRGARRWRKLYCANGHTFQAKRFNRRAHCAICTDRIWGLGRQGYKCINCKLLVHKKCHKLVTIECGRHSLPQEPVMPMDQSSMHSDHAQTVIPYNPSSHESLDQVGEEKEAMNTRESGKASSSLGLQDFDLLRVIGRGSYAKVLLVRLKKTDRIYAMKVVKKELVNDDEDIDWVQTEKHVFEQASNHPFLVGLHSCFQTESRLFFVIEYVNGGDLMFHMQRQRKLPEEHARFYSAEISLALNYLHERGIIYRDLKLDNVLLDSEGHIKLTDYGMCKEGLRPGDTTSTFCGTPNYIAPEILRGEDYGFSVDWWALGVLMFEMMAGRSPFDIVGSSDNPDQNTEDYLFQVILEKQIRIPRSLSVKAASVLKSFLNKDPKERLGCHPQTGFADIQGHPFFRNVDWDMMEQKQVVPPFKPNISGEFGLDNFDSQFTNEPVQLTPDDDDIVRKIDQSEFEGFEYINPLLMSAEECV
Summary of the method: as §1

AXL = molecular target: T3, AXL (Homo sapiens, UniProt P30530); conditions: read-out: % control
T3 construct: purchased KinomeScan®
T3 sequence (P30530 26-894): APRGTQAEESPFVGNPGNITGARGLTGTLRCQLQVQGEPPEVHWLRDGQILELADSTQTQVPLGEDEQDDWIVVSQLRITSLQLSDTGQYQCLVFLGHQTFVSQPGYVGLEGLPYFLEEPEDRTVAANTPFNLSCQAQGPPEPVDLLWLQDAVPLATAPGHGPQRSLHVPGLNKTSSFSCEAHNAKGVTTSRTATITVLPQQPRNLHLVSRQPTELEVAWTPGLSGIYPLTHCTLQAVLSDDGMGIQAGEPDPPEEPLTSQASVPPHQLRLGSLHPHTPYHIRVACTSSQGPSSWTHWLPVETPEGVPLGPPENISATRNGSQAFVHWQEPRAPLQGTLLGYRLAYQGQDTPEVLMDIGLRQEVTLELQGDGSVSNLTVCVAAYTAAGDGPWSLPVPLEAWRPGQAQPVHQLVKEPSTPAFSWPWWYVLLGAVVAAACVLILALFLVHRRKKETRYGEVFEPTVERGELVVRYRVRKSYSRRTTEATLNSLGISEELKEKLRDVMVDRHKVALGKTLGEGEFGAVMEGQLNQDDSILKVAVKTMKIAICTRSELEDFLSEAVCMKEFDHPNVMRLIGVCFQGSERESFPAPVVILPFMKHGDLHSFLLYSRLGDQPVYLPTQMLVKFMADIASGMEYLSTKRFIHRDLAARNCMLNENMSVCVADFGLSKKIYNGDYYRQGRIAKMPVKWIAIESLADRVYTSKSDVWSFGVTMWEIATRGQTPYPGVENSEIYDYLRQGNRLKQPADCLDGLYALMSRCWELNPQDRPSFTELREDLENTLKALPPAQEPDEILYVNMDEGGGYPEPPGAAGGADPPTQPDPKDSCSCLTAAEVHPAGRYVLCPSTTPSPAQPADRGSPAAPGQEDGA
Summary of the method: as §1

YANK2, sequence (Q9NY57 whole entry): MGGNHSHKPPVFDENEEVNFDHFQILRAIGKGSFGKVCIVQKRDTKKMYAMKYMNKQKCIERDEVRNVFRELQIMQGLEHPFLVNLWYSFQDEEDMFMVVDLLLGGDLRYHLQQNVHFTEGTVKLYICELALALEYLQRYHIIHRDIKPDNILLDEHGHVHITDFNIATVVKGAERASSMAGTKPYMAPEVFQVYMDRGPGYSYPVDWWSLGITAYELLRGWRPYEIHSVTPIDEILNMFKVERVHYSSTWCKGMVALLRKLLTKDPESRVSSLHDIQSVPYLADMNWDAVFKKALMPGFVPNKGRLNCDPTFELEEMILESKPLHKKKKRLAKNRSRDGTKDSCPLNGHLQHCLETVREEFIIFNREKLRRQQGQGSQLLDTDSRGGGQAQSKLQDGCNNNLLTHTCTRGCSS

| Compound | remaining binding at 1 µM (YANK2) | remaining binding at 1 µM (PRKD2) | remaining binding at 1 µM (PRKCI) | remaining binding at 1 µM (AXL) |
| --- | --- | --- | --- | --- |
| CNc1c(-c2cnn([C@H]3CCN(C(C)=O)C[C@@H]3F)c2)cnc2[nH]cc(Cl)c12 [Compound 77, 1-((3S,4S)-4-(4-(3-chloro-4-(methylamino)-1H-pyrrolo[2,3-b]pyridin-5-yl)-1H-pyrazol-1-yl)-3-fluoropiperidin-1-yl)ethan-1-one] | 100% | 90% | 67% | 8.5% |
| CNc1c(-c2ccc(C(=O)N3CCC(N4CCOCC4)CC3)cc2)cnc2[nH]cc(Cl)c12 [Compound 96, (4-(3-chloro-4-(methylamino)-1H-pyrrolo[2,3-b]pyridin-5-yl)phenyl)(4-morpholinopiperidin-1-yl)methanone] | 100% | 13% | 69% | 33% |
| O=C(c1ccc(-c2cnc3[nH]cc(Cl)c3c2NC2CCCC2)cc1)N1CCC(N2CCOCC2)CC1 [Compound 101, (4-(3-chloro-4-(cyclopentylamino)-1H-pyrrolo[2,3-b]pyridin-5-yl)phenyl)(4-morpholinopiperidin-1-yl)methanone] | 100% | 59% | 100% | 40% |
